Experimental data as given in patent US10933051B2, “Carbapenem compounds and compositions for the treatment of bacterial infections” (FOB Synthesis, Inc., priority 2017, dated 2021).

What was measured:
Experiment in all cases: Antimicrobial Susceptibility Test (CLSI), Test Example 2
Assay type in all cases: cell-based
Design in all cases: unit not given here
A. baumannii FSAb-056 = details: Table 4; strain produces OXA-23, OXA-51
Description: (§1) Antimicrobial Susceptibility Test was performed by the CLSI (Clinical and Laboratory Standards Institute) methods. The agar dilution method for determining antimicrobial susceptibility was carried out using Mueller Hinton-II agar and the amount of inoculation was 10^4CFU/spot. Broth dilution tests were performed using the Mueller Hinton-II broth. All assays were run with the indicated control strains, available from the ATCC (American Type Culture Collection, Rockville, Md.).

A. baumannii FSAb-065 = details: Table 4; strain produces OXA-2, VIM-2
Description: as §1

[1] = test system: K. pneumoniae ATCC BAA-1904; details: Table 4; strain produces KPC-3
Description: as §1

A. baumannii FSAb-029 = details: Table 4; strain produces OXA-2, IMP-1
Description: as §1

P. aeruginosa FSPa-121 = details: Table 4; strain produces OXA-17
Description: as §1

E. coli FSEco-054 = details: Table 4; strain produces ESBL
Description: as §1

A. baumannii FSAb-039 = details: Table 4; strain produces OXA-51
Description: as §1

SMILES	antimicrobial susceptibility, A. baumannii FSAb-056 (A. baumannii FSAb-056)	antimicrobial susceptibility, A. baumannii FSAb-065 (A. baumannii FSAb-065)	antimicrobial susceptibility, K. pneumoniae BAA-1904 [1]	antimicrobial susceptibility, A. baumannii FSAb-029 (A. baumannii FSAb-029)	antimicrobial susceptibility, P. aeruginosa FSPa-121 (P. aeruginosa FSPa-121)	antimicrobial susceptibility, E. coil FSEco-054 (E. coli FSEco-054)	antimicrobial susceptibility, A. baumannii FSAb-039 (A. baumannii FSAb-039)
C[C@@H](O)[C@H]1C(=O)N2C(C(=O)O)=C(CN(C)CCNC(=O)c3ccc(O)c(O)c3F)[C@H](C)[C@H]12 [Compound 2]	2	2	16	2	2	2	4
C[C@@H](O)[C@H]1C(=O)N2C(C(=O)O)=C(CN(C)CCNC(=O)c3ccc(O)c(O)c3C(F)(F)F)[C@H](C)[C@H]12 [Compound 3]	4	2	32	4	4	4	4
Cc1c(C(=O)NCCN(C)CC2=C(C(=O)O)N3C(=O)[C@H]([C@@H](C)O)[C@H]3[C@H]2C)ccc(O)c1O [Compound 4]	8	4	16	8	8	8	8
C[C@@H](O)[C@H]1C(=O)N2C(C(=O)O)=C(CN(C)CCNC(=O)c3cc(O)c(O)c(F)c3)[C@H](C)[C@H]12 [Compound 7]	2	2	16	2	2	2	4
C[C@@H](O)[C@H]1C(=O)N2C(C(=O)O)=C(CN(C)CCNC(=O)c3ccc(O)cc3)[C@H](C)[C@H]12 [Compound 10]	16	16	8	16	>32	>32	>32
C[C@@H](O)[C@H]1C(=O)N2C(C(=O)O)=C(CN(C)CCNC(=O)c3cccc(O)c3Cl)[C@H](C)[C@H]12 [Compound 11]	32	32	8	32	>32	>32	>32
C[C@@H](O)[C@H]1C(=O)N2C(C(=O)O)=C(CN(C)CCNC(=O)c3cccc(O)c3F)[C@H](C)[C@H]12 [Compound 12]	32	32	4	32	>32	>32	>32
C[C@@H](O)[C@H]1C(=O)N2C(C(=O)O)=C(CN(C)CCNC(=O)c3ccccc3Cl)[C@H](C)[C@H]12 [Compound 13]	32	16	8	32	>32	>32	>32
C[C@@H](O)[C@H]1C(=O)N2C(C(=O)O)=C(CN(C)CCNC(=O)c3ccc(Cl)cc3)[C@H](C)[C@H]12 [Compound 14]	>32	>32	16	>32	>32	>32	>32
C[C@@H](O)[C@H]1C(=O)N2C(C(=O)O)=C(CN(C)CCNC(=O)c3ccc(OC(=O)C(C)(C)C)c(OC(=O)C(C)(C)C)c3Cl)[C@H](C)[C@H]12 [Compound 16]	8	8	>32	4	8	8	8
C[C@@H](O)[C@H]1C(=O)N2C(C(=O)O)=C(CN(C)CCCNC(=O)c3ccc(O)c(O)c3Cl)[C@H](C)[C@H]12 [Compound 17]	4	2	32	2	4	2	8
C[C@@H](O)[C@H]1C(=O)N2C(C(=O)O)=C(CN(C)CC(NC(=O)c3ccc(O)c(O)c3Cl)C(N)=O)[C@H](C)[C@H]12 (some centres unmarked) [Compound 18]	4	1	16	8	2	2	4
C[C@@H](O)[C@H]1C(=O)N2C(C(=O)O)=C(CN(C)CC(=O)NCc3ccc(O)c(O)c3Cl)[C@H](C)[C@H]12 [Compound 21]	8	2	8	8	2	4	8
C[C@@H](O)[C@H]1C(=O)N2C(C(=O)O)=C(CN3CC[C@H](NC(=O)c4ccc(OCc5ccccc5)c(OCc5ccccc5)c4Cl)C3)[C@H](C)[C@H]12 [Compound 28]	4	0.5	>32	0.5	2	2	8
C[C@@H](O)[C@H]1C(=O)N2C(C(=O)O)=C(CN3CC[C@@H](NC(=O)c4ccc(O)c(O)c4Cl)C3)[C@H](C)[C@H]12 [Compound 29]	4	1	>32	1	2	2	8
C[C@@H](O)[C@H]1C(=O)N2C(C(=O)O)=C(CN3C[C@H](NC(=O)c4ccc(O)c(O)c4Cl)[C@@H](O)C3)[C@H](C)[C@H]12 [Compound 30]	4	0.5	16	2	2	2	4
C[C@@H](O)[C@H]1C(=O)N2C(C(=O)O)=C(CN3C[C@@H](O)[C@H](NC(=O)c4ccc(O)c(O)c4Cl)C3)[C@H](C)[C@H]12 [Compound 31]	4	0.5	32	2	2	2	4
C[C@@H](O)[C@H]1C(=O)N2C(C(=O)O)=C(CN3CC(NC(=O)c4ccc(O)c(O)c4F)[C@@H](O)C3)[C@H](C)[C@H]12 (some centres unmarked) [Compound 36]	8		32	4		4	4
C[C@@H](O)[C@H]1C(=O)N2C(C(=O)[O-])=C(C[N+](C)(C)CCNC(=O)c3ccc(O)c(O)c3F)[C@H](C)[C@H]12 [Compound 41]	32		8	8		4	16
C[C@@H](O)[C@H]1C(=O)N2C(C(=O)[O-])=C(C[N+]3(CCNC(=O)c4ccc(O)c(O)c4F)CCCC3)[C@H](C)[C@H]12 [Compound 42]	16		16	4		2	8
